Laboratory results taken from the NIST ThermoML archive (doi:10.1016/j.fluid.2016.06.028).
Numbers after ± are expanded uncertainties.

Settings: for surface tension liquid-gas: Ring tensiometer; for viscosity / electrical conductivity / mass density: 101.33 kPa, Liquid; for viscosity: Concentric cylinders viscometry; for electrical conductivity: Direct current cell with electrodes; for mass density: Vibrating tube method

COCC[N+]1(C)CCCCC1.O=S(=O)([N-]S(=O)(=O)C(F)(F)F)C(F)(F)F
Settings | electrical conductivity [S/m] | mass density [kg/m3] | surface tension liquid-gas [mN/m] | viscosity [mPa·s]
298.15 K | 0.209 ± 0.04 | 1433.2 ± 1.9 | 44.65 ± 0.81 | 69.89 ± 7
303.15 K | 0.241 ± 0.04 | 1429 ± 1.9 | 44.06 ± 0.8 | 55.79 ± 5.6
313.15 K | 0.287 ± 0.04 | 1419.8 ± 1.8 | 43.2 ± 0.79 | 35.69 ± 3.6
323.15 K | 0.325 ± 0.04 | 1410.7 ± 1.8 | 42.01 ± 0.78 | 26 ± 2.6
333.15 K | 0.396 ± 0.04 | 1401.7 ± 1.8 | 40.98 ± 0.76 | 19.8 ± 2
343.15 K | 0.489 ± 0.04 | 1392.5 ± 1.8 | 40.19 ± 0.75 | 15.6 ± 1.6
353.15 K | 0.599 ± 0.04 | 1383.3 ± 1.7 | 38.83 ± 0.74 | 13.8 ± 1.4

CCC[N+](C)(C)CC.O=S(=O)([N-]S(=O)(=O)C(F)(F)F)C(F)(F)F
Settings | electrical conductivity [S/m] | mass density [kg/m3] | surface tension liquid-gas [mN/m] | viscosity [mPa·s]
298.15 K | 0.248 ± 0.04 | 1403 ± 1.8 | 46.56 ± 0.83 | 58.79 ± 5.9
303.15 K | 0.281 ± 0.04 | 1398.8 ± 1.8 | 45.84 ± 0.83 | 53.39 ± 5.4
313.15 K | 0.325 ± 0.04 | 1389.8 ± 1.8 | 44.92 ± 0.81 | 38.39 ± 3.9
323.15 K | 0.358 ± 0.04 | 1381 ± 1.7 | 43.95 ± 0.8 | 28.49 ± 2.9
333.15 K | 0.414 ± 0.04 | 1372.1 ± 1.7 | 43.34 ± 0.79 | 21.3 ± 2.1
343.15 K | 0.519 ± 0.04 | 1362.4 ± 1.7 | 42.03 ± 0.78 | 17.1 ± 1.7
353.15 K | 0.634 ± 0.04 | 1352.7 ± 1.7 | 40.89 ± 0.76 | 14.1 ± 1.4

CC[N+](C)(C)CCOC.O=S(=O)([N-]S(=O)(=O)C(F)(F)F)C(F)(F)F
Settings | electrical conductivity [S/m] | mass density [kg/m3] | surface tension liquid-gas [mN/m] | viscosity [mPa·s]
298.15 K | 0.288 ± 0.04 | 1424.9 ± 1.8 | 47.56 ± 0.85 | 59.39 ± 6
303.15 K | 0.315 ± 0.04 | 1420.5 ± 1.8 | 47.32 ± 0.84 | 50.39 ± 5.1
313.15 K | 0.357 ± 0.04 | 1411 ± 1.8 | 45.67 ± 0.82 | 30.59 ± 3.1
323.15 K | 0.395 ± 0.04 | 1401.5 ± 1.8 | 44.86 ± 0.81 | 23.1 ± 2.3
333.15 K | 0.465 ± 0.04 | 1390.3 ± 1.8 | 43.46 ± 0.8 | 18.3 ± 1.8
343.15 K | 0.551 ± 0.04 | 1379.2 ± 1.7 | 42.23 ± 0.78 | 15 ± 1.5
353.15 K | 0.633 ± 0.04 | 1368.9 ± 1.7 | 40.44 ± 0.76 | 13.2 ± 1.3

COCC[N+]1(C)CCOCC1.O=S(=O)([N-]S(=O)(=O)C(F)(F)F)C(F)(F)F
Settings | electrical conductivity [S/m] | mass density [kg/m3] | surface tension liquid-gas [mN/m] | viscosity [mPa·s]
298.15 K | 0.065 ± 0.04 | 1500.2 ± 2.1 | 50.14 ± 0.88 | 257.6 ± 26
303.15 K | 0.079 ± 0.04 | 1495.7 ± 2 | 49.3 ± 0.87 | 210.9 ± 22
313.15 K | 0.108 ± 0.04 | 1486.4 ± 2 | 48.41 ± 0.86 | 127.2 ± 13
323.15 K | 0.136 ± 0.04 | 1477.2 ± 2 | 47.64 ± 0.85 | 77.98 ± 7.9
333.15 K | 0.17 ± 0.04 | 1468 ± 2 | 46.3 ± 0.83 | 51.89 ± 5.2
343.15 K | 0.257 ± 0.04 | 1458.9 ± 1.9 | 45.36 ± 0.82 | 37.49 ± 3.8
353.15 K | 0.334 ± 0.04 | 1449.8 ± 1.9 | 44.74 ± 0.81 | 27.59 ± 2.8

COCC[N+]1(C)CCCC1.O=S(=O)([N-]S(=O)(=O)C(F)(F)F)C(F)(F)F
Settings | electrical conductivity [S/m] | mass density [kg/m3] | surface tension liquid-gas [mN/m] | viscosity [mPa·s]
298.15 K | 0.345 ± 0.04 | 1453 ± 1.9 | 49.22 ± 0.87 | 52.19 ± 5.2
303.15 K | 0.402 ± 0.04 | 1448.7 ± 1.9 | 48.62 ± 0.86 | 46.49 ± 4.7
313.15 K | 0.48 ± 0.04 | 1439.3 ± 1.9 | 47.34 ± 0.84 | 34.49 ± 3.5
323.15 K | 0.534 ± 0.04 | 1429.9 ± 1.9 | 46.18 ± 0.83 | 25.79 ± 2.6
333.15 K | 0.59 ± 0.04 | 1420.7 ± 1.8 | 45 ± 0.81 | 20.1 ± 2
343.15 K | 0.648 ± 0.04 | 1411.2 ± 1.8 | 44.26 ± 0.81 | 16.8 ± 1.7
353.15 K | 0.699 ± 0.04 | 1401.9 ± 1.8 | 42.28 ± 0.78 | 13.5 ± 1.4
